Key:
[1] = test system: SYO-1 human biphasic synovial sarcoma tumor cells; assay: Nanosuspension mouse efficacy study, SYO-1 xenograft tumor volume; assay type: in vivo; conditions: SYO-1 xenograft mice, Cohorts 2-8, IV, SC, IM, 1-200 mg/kg, over 4 weeks, FIG. 3B
Procedure: (§1) Each mouse was inoculated subcutaneously on the right flank with a single cell suspension of SYO-1 human biphasic synovial sarcoma tumor cells (5×10^6) in 100 μL DMEM with 10% FBS for the tumor development. Treatment (Table 6) was started when mean tumor volume reached about 100-150 mm^3 for the efficacy cohorts. Based on the tumor volume, mice were randomly assigned to respective groups using a computer-generated randomization procedure. Corresponding formulations are in Table 6. For each dosing cohort, dosing volume was calculated based on concentration of the formulation and dose volume (ml/kg). Vehicle for IV was 20% HP-β-CD in 5 mM citrate buffer of pH 3, with adjustment to a final PH of 5. Body weight of all animals was measured and recorded twice a week throughout the study. The measurement of tumor size was conducted twice a week with a caliper and recorded. Tumor volume was used for calculation of tumor growth inhibition (TGI) value of the tumors in the treated and the control cohorts, respectively, on a given day after tumor inoculation.
64 plasma samples were collected at two time points (672 h and 676 h) from efficacy study cohorts. 64 tumor samples were collected at two time points (672 h and 676 h) from efficacy cohorts 1-8 and cut into 3 pieces: one piece for PK analysis, one piece for WB analysis (BRD9), and one piece snap frozen for further analysis (n=4). […]

[2] = Particle size analysis of Compound A nanosuspension / microsuspension formulations; assay type: physicochemical; conditions: jet mill feed pressure 4.5 bar, milling pressure 5.0 bar, before ball milling
Procedure: Milling was performed in a high energy ball mill with suitable sized-spherical, polymeric or Zirconium oxide beads. Compound A and excipient(s) as indicated in Table 1 were combined in deionized water per the indicated batch size and transferred to the milling chamber. Nanosuspensions A through D were generated utilizing process conditions denoted in Table 2.
Compound A was first mechanically jet-milled to reduce initial particle size prior to ball milling. The jet mill feed pressure was 4.5 bar and milling pressure was 5.0 bar. The resulting particle size of jet milled Compound A was 5-6 microns […]. […]
Compound A in a concentration range of between about 20 mg/mL to about 100 mg/mL (2-10% w/w), along with parenteral grade olive oil and 1% sorbitan monooleate [SPAN®80], was nano-milled using a high energy mill at 3000 rpm with 0.3 mm beads or 0.65 mm beads to produce microsuspensions. […] Performance of an amorphous microsuspension of Compound A was evaluated in Male SD rats. […] At each time point, approximately 0.2 mL blood was collected via jugular vein and analyzed by LC-MS/MS for mean plasma concentration of Compound A (FIG. 4). Pharmacokinetics determined that a target Cmin of 3 ng/mL was desired, which is denoted by the black dashed line in FIG. 4. […]

[3] = Body weight / tolerability in mouse efficacy study; assay type: in vivo; conditions: tumor-bearing mice, all doses and all modes of administration, 4 weeks, FIG. 3A
Procedure: as §1

particle size (D50) of jet milled Compound A [2]: 5-6 microns
Structure (SMILES): COc1cc(-c2cn(C)c(=O)c3cnc(N4CCC4)cc23)cc(OC)c1CN1CCC(CN2CCC3(CC2)CN(c2ccc4c(c2)C(=O)N(C2CCC(=O)NC2=O)C4)C3)CC1 (stereo not drawn) [Compound A, 3-(6-(7-((1-(4-(6-(azetidin-1-yl)-2-methyl-1-oxo-1,2-dihydro-2,7-naphthyridin-4-yl)-2,6-dimethoxybenzyl)piperidin-4-yl)methyl)-2,7-diazaspiro[3.5]nonan-2-yl)-1-oxoisoindolin-2-yl)piperidine-2,6-dione]
tumor growth (tumor volume) versus Vehicle control [1]: slowed tumor growth significantly
body weight [3]: remaining fairly constant

Source: patent US20260224559A1, “FORMULATIONS FOR TREATING CANCER” (FOGHORN THERAPEUTICS INC., priority 2023, published 2026)
